# Results: patent US12544375B2, “Small molecule therapeutic for parkinson's disease paired with a biomarker of therapeutic activity” (The Board of Trustees of the Leland Stanford Junior …, priority 2019, dated 2026)
# Molecular target: T1, Myc-Miro1-7A (Homo sapiens, UniProt Q8IXI2, D530A/K427A/K454A/K528A/N428A/Q446A/S432A)
# T1 construct: expressed in transfected cells; host or cells: human skin fibroblasts Healthy-1 and PD-2 (Lipofectamine 2000)
# Test: Drug-resistant mutant Myc-Miro1-7A expressed in fibroblasts, immunostaining
# Type: cell-based
# Settings: expressed in PD-2 fibroblasts, CCCP treatment
# Method: FIG. 2A-FIG. 2F. Miro1 Reducer Eliminates the Miro1 Defect in PD Fibroblasts. (FIG. 2A) Chemical properties of Miro1 Reducer. (FIG. 2B) Wild-type flies (w^1118) were fed with DMSO alone (0 μM Miro1 Reducer) or Miro1 Reducer in DMSO at 250 μM for 7 days, and lysed and blotted as indicated. The band intensities are normalized to those of Tubulin from the same blots. n=4. (FIG. 2C-FIG. 2E) Fibroblasts were treated, lysed, and blotted as indicated. (FIG. 2C) Band intensities are normalized to those of GAPDH from the same blots and compared to “Healthy-1, no treatment” except otherwise indicated. n=4. (FIG. 2D) Band intensities are normalized to those of ATP5β from the same blots and expressed as a percentage of the mean of “0 μM Miro1 Reducer with CCCP”. Mean±S.E.M is shown. n=3. (FIG. 2E) Band intensities are normalized to those of GAPDH from the same blots and compared to “Healthy-1, no CCCP, no MG132” except otherwise indicated. n=4. (FIG. 2F) Healthy-1 and PD-2 fibroblasts were transfected as indicated, and immunostained with anti-Myc (Miro1, green) and stained with Dapi (blue). The Miro1 intensity is normalized to that of mito-dsRed from the same cell and quantified across 37-62 cells from 5 fields each transfection, 3 independent transfections. Scale bars: 50 μm. For (FIG. 2C-FIG. 2F), both CCCP and Miro1 Reducer were dissolved in DMSO. […]
# T1 sequence (Q8IXI2 whole entry K427A/N428A/S432A/Q446A/K454A/K528A/D530A): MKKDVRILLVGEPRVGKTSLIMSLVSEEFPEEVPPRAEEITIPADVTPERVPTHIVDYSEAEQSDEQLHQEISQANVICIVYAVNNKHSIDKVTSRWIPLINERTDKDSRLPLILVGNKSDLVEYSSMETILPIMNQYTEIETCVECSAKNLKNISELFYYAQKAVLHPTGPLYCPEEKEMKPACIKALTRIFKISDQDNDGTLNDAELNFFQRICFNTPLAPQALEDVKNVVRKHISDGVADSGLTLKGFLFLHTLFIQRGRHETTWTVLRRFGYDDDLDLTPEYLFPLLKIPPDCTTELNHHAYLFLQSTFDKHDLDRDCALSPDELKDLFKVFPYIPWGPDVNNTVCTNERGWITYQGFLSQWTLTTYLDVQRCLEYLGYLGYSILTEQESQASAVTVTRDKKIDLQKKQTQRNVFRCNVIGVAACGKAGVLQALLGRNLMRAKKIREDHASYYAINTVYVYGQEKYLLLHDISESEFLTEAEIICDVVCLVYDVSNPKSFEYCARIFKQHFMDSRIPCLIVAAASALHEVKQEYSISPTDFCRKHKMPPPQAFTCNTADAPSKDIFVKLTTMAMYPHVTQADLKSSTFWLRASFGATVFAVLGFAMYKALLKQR
smiles,measurement,value
O=C(Nc1ccc(Nc2cc(-n3ccnc3)ncn2)cc1)Nc1cccc(F)c1 [Miro1 Reducer],response of mutant Myc-Miro1-7A to compound,failed to respond
